From paper PMC9525273 (Nature Communications, 2022)
“And” between values parts separate entries of the source, which are not always exact repeats. Equal values may be shown once. Read-outs that look alike come from different tables or passages of the source.

Tests used:
[1] = target: T1, PfATP4^WT (membranes from Dd2-Polδ parasites) (Plasmodium falciparum, UniProt A0A143ZZK9); assay: Membrane ATPase assay, ATP4-associated (Na+-dependent) ATPase activity; assay type: biochemical; conditions: Dd2-Polδ
T1 sequence (A0A143ZZK9 1-1264): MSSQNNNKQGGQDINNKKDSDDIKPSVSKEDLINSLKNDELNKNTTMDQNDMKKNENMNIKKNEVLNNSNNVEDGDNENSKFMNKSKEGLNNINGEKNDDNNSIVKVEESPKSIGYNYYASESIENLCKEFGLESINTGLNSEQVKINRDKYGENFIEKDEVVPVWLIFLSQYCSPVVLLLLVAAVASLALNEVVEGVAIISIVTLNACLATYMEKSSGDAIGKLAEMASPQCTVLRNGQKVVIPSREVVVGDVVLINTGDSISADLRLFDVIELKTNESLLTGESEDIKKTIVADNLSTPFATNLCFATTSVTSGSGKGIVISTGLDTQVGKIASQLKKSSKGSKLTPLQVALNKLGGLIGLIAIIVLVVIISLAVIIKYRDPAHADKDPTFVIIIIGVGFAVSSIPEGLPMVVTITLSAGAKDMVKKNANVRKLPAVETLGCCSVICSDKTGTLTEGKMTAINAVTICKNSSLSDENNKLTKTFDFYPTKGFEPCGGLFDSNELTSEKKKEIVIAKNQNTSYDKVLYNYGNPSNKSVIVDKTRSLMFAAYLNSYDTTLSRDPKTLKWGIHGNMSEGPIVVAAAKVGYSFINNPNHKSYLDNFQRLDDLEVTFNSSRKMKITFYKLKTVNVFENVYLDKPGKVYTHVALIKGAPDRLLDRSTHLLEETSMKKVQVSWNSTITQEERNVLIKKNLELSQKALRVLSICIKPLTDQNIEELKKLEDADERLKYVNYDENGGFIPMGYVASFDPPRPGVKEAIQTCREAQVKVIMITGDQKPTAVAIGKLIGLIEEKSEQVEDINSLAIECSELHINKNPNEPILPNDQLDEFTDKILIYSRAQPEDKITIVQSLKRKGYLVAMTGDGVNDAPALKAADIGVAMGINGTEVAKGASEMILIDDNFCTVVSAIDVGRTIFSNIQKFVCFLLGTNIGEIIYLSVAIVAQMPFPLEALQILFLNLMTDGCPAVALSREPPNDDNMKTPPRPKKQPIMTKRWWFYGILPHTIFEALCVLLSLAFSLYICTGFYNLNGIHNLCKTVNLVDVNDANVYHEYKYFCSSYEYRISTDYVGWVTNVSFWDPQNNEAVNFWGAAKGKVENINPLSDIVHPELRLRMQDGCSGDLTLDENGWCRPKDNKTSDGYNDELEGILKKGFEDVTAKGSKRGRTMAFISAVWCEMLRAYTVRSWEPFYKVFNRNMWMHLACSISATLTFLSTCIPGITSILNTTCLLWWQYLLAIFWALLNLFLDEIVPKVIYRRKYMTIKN
Method: Membranes from isolated P. falciparum or extracellular T. gondii parasites were prepared by lysing parasites in ice-cold deionized water containing a 1:500 dilution of Protease Inhibitor Cocktail Set III (Merck Millipore), then washing the membrane preparation three times in ice-cold deionized water (with protease inhibitors present for the first two washes)[15]. Protein concentrations in the membrane preparations were measured using a Bradford assay. The PiColorLock Gold Phosphate Detection System (Innova Biosciences) was used to measure the production of Pi from hydrolysis of ATP[15]. Membrane preparations were diluted in either a high Na^+ solution (yielding final conditions in the reactions of 150 mM NaCl, 20 mM KCl, 2 mM MgCl2, 50 mM Tris, pH 7.2) or a Na^+-free solution (yielding final conditions of 150 mM choline chloride, 20 mM KCl, 2 mM MgCl2, 50 mM Tris, pH 7.2) to achieve a total protein concentration of 50 μg/mL. […] The reactions were performed at 37 °C, and were initiated by the addition of 1 mM ATP (Na2ATP۰3H2O; MP Biomedicals) and terminated 10 min later by adding 100 μL of reaction mixture (in duplicate) to 25 μL “Gold mix” in a 96-well plate. “Stabiliser” was added 3 min later, and the plates incubated at room temperature in the dark for 60 min before measuring absorbance at 635 nm. Background values (averaged from wells containing all components, but to which ATP was not added until after the membrane was exposed to Gold mix) were subtracted from the data. For each treatment, the ATPase activity associated with the (Na^+-dependent) PfATP4 and TgATP4 proteins was calculated by subtracting data obtained in the low Na^+ condition (containing only the 2 mM Na^+ introduced on addition of 1 mM Na2ATP) from that obtained in the high Na^+ condition.

NF54^WT parasites = assay: microbe, parasite or virus in culture; assay type: cell-based, Plasmodium falciparum
Method: For the NF54-based lines and Dd2-B2-PfATP4^G358S and its parent, assays were initiated with cultures containing predominantly ring-stage parasites with a parasitaemia of 0.3% and a haematocrit of 1%. All assays using NF54 were performed in culture media containing 10% O + human serum. The duration of the assays was 72 h and the concentration of DMSO was <0.5% (v/v). Serial dilutions of the test compounds were performed using a Tecan D300e digital dispenser, with parasite cultures added manually. Parasite survival was assessed by flow cytometry on an Intellicyt iQue3 (Essen Bioscience), with 1× SYBR Green I (Invitrogen) and 200 nM MitoTracker Deep Red FM (Invitrogen) used to stain the nucleus and the mitochondria in live parasites, respectively. The gating strategy used to quantify parasite survival, performed using FlowJo version 10 (FlowJo LLC.), is illustrated in Supplementary Fig. 9. IC50 and IC90 values were calculated by linear interpolation of the dose-response data.

NF54^G358S-1 parasites = assay: P. falciparum proliferation assay (72 h, flow cytometry, SYBR Green I/MitoTracker); assay type: cell-based, Plasmodium falciparum
Summary of the method: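 Predominantly ring-stage cultures at 0.3% parasitaemia, 1% haematocrit, in medium with 10% O+ human serum; compound exposure 72 h, DMSO <0.5% (v/v). Live parasites counted by flow cytometry with SYBR Green I and 200 nM MitoTracker Deep Red. IC50/IC90 from linear interpolation of dose-response data.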

In the case of `N#Cc1cc(NC(=O)[C@H]2c3ccccc3C(=O)N(CC(F)(F)F)[C@@H]2c2cccnc2)ccc1F` [(+)SJ733], the “PfATP4-associated ATPase activity (% of control)” value ([1]; [(+)SJ733] 0.122 nM, MEAN) is reported as 74.2 % of control, the “PfATP4-associated ATPase activity (% of control)” value ([1]; [(+)SJ733] 0.122 nM, single experiments, 0.000122 µM) is reported as 57.4 % of control and 86.4 % of control and 78.7 % of control and the “PfATP4-associated ATPase activity (% of control)” value ([1]; [(+)SJ733] 0.244 nM, MEAN) is reported as 71.3 % of control. For the same molecule, the “PfATP4-associated ATPase activity (% of control)” value ([1]; [(+)SJ733] 0.244 nM, single experiments, 0.000244 µM) was 51.9 % of control and 74.9 % of control and 87.1 % of control, the “PfATP4-associated ATPase activity (% of control)” value ([1]; [(+)SJ733] 0.5 nM, MEAN) was 85.1 % of control and the “PfATP4-associated ATPase activity (% of control)” value ([1]; [(+)SJ733] 1.0 nM, MEAN) was 59.1 % of control. The “PfATP4-associated ATPase activity (% of control)” value ([1]; [(+)SJ733] 2.0 nM, MEAN) was 64.2 % of control, the “PfATP4-associated ATPase activity (% of control)” value ([1]; [(+)SJ733] 3.9 nM, MEAN) was 46.7 % of control and the “PfATP4-associated ATPase activity (% of control)” value ([1]; [(+)SJ733] 7.8 nM, MEAN) was 32.8 % of control. For the same molecule, the “PfATP4-associated ATPase activity (% of control)” value ([1]; [(+)SJ733] 15.6 nM, MEAN) was 21.9 % of control, the “PfATP4-associated ATPase activity (% of control)” value ([1]; [(+)SJ733] 31.3 nM, MEAN) was 30.9 % of control and the “PfATP4-associated ATPase activity (% of control)” value ([1]; [(+)SJ733] 62.5 nM, MEAN) was 7.7 % of control. The “PfATP4-associated ATPase activity (% of control)” value ([1]; [(+)SJ733] 250 nM, MEAN) was 11.2 % of control, the “PfATP4-associated ATPase activity (% of control)” value ([1]; [(+)SJ733] 500 nM, MEAN) was -2.6 % of control and the “PfATP4-associated ATPase activity (% of control)” value ([1]; [(+)SJ733] 1000 nM, MEAN) was -8.2 % of control. For the same molecule, the “PfATP4-associated ATPase activity (% of control)” value ([1]; [(+)SJ733] 2000 nM, MEAN) was 7.9 % of control, the “PfATP4-associated ATPase activity (% of control)” value ([1]; [(+)SJ733] 4000 nM, MEAN) was -17.1 % of control and the “PfATP4-associated ATPase activity (% of control)” value ([1]; [(+)SJ733] 8000 nM, MEAN) was -14.6 % of control.
In the case of `C[C@H]1[C@@H](O)O[C@@H]2O[C@@]3(C)CC[C@H]4[C@H](C)CC[C@@H]1[C@@]24OO3` [Dihydroartemisinin], the IC90 (NF54^WT parasites; NF54WT parasites, individual experiments, read-out: IC90 values) is reported as 1.85 nM and 1.87 nM and 2.79 nM, the “FC (IC50)” value (NF54^WT parasites; NF54WT, reference line) is reported as 1.0 fold and the “FC (IC90)” value (NF54^WT parasites; NF54WT, reference line) is reported as 1.0 fold. It also gave an IC90 (NF54^WT parasites; Plasmodium falciparum, NF54, NF54WT parasites, individual experiments, read-out: IC90 values) of 2.83 nM, an IC90 (NF54^WT parasites; Plasmodium falciparum, NF54, NF54WT parasites, mean of the experiments, read-out: IC90 values, MEAN) of 2.3 nM and an IC50 (NF54^WT parasites; Plasmodium falciparum, NF54, NF54WT, 10% human serum, read-out: IC50 ± SEM) of 0.8 ± 0.1 nM. For the same molecule, the IC50 (NF54^WT parasites; Plasmodium falciparum, NF54, read-out: Dihydroartemisinin IC50 values, NF54WT, MEAN) was 0.84 nM, the IC50 (NF54^WT parasites; read-out: Dihydroartemisinin IC50 values, NF54WT, single experiments) was 0.78 nM and 0.71 nM and 0.86 nM and the “FC (IC50)” value (NF54^G358S-1 parasites; NF54G358S-1 compared to NF54WT) was 1.1 fold. The “FC (IC90)” value (NF54^G358S-1 parasites; NF54G358S-1 compared to NF54WT) was 1.1 fold, the IC90 (NF54^G358S-1 parasites; NF54G358S-1 parasites, individual experiments, read-out: IC90 values) was 2.78 nM and 2.34 nM and 2.64 nM and the IC90 (NF54^G358S-1 parasites; Plasmodium falciparum, NF54, NF54G358S-1 parasites, individual experiments, read-out: IC90 values) was 2.68 nM. The IC90 (NF54^G358S-1 parasites; Plasmodium falciparum, NF54, NF54G358S-1 parasites, mean of the experiments, read-out: IC90 values, MEAN) was 2.6 nM, the IC50 (NF54^G358S-1 parasites; Plasmodium falciparum, NF54, read-out: Dihydroartemisinin IC50 values, NF54G358S-1, MEAN) was 0.9 nM and the IC50 (NF54^G358S-1 parasites; read-out: Dihydroartemisinin IC50 values, NF54G358S-1, single experiments) was 0.76 nM and 0.77 nM.
